# Read-outs that look alike come from different tables or passages of the source.
# Columns and labels:
# D1 = D1 (Homo sapiens, UniProt P21728); test: Radioligand binding, dopamine D1; settings: Table 4; read-out: Binding affinity, IC50 (nM) D1
# 5-HT7 = molecular target: T1, 5-HT7 (Homo sapiens, UniProt P34969); test: Radioligand binding, 5-HT7 ([3H]LSD); settings: Table 4; [3H]LSD 3 nM; read-out: Binding affinity, IC50 (nM) 5-HT7
# T1 construct: purchased Euroscreen/BioSignal Packard Inc
# 5-HT2c = molecular target: T2, 5-HT2c (Homo sapiens, UniProt P28335); test: Radioligand binding, 5-HT2c ([3H]Mesulergine); settings: Table 4; [3H]Mesulergine 1 nM; read-out: Binding affinity, IC50 (nM) 5-HT2c
# T2 construct: purchased Euroscreen/BioSignal Packard Inc
# T2 sequence (P28335 33-458): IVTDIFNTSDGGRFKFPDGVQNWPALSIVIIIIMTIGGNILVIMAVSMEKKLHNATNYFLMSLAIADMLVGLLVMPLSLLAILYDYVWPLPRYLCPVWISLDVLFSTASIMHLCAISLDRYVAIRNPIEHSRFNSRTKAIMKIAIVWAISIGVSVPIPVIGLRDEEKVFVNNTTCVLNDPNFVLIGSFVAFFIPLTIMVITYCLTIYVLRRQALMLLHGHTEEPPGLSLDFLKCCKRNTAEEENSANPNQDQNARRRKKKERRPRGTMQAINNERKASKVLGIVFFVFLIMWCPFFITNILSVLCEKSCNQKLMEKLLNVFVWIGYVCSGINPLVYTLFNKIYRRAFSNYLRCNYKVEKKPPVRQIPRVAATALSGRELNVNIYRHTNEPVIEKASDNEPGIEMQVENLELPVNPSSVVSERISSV
# hD4.2 receptor = molecular target: T3, hD4.2 receptor (Homo sapiens, UniProt P21917, DEL265-296); test: Radioligand binding, dopamine D4 ([3H]YM-09151-2); settings: Table 4; [3H]YM-09151-2 0.06 nM; read-out: Binding affinity, IC50 (nM) D4
# T3 construct: purchased BioSignal Packard Inc., Montreal, Canada
# T3 sequence (P21917 with tags, fused parts or gaps DEL265-296): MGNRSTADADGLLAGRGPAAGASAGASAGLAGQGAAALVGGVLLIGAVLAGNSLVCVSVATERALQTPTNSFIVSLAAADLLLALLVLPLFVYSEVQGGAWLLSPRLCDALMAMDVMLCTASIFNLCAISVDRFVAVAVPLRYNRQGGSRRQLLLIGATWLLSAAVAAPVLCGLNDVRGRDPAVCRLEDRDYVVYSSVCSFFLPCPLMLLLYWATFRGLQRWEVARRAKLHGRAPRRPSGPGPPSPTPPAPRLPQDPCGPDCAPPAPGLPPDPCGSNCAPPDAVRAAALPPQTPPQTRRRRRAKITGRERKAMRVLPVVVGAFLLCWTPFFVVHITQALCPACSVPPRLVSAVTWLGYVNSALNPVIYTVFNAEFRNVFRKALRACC
# How it was run: (§1)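 Membrane competition binding with [3H]spiperone (1 nM) for hD2L and hD3, or [3H]YM-09151-2 (0.06 nM) for hD4.2, each in receptor-specific Tris-HCl pH 7.4 buffer containing Mg2+/EDTA (D3 and D4 also with K+, Ca2+; D3 with 120 mM NaCl). Compounds were tested at 7-8 concentrations in duplicate, and IC50 was derived by nonlinear regression across three assays.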
# 5-HT1a = molecular target: T4, 5-HT1a (Homo sapiens, UniProt P08908); test: Radioligand binding, 5-HT1a ([3H]8-OH-DPAT); settings: Table 4; [3H]8-OH-DPAT 0.5 nM; read-out: Binding affinity, IC50 (nM) 5-HT1a
# T4 construct: purchased Euroscreen/BioSignal Packard Inc
# T4 sequence (P08908 1-422): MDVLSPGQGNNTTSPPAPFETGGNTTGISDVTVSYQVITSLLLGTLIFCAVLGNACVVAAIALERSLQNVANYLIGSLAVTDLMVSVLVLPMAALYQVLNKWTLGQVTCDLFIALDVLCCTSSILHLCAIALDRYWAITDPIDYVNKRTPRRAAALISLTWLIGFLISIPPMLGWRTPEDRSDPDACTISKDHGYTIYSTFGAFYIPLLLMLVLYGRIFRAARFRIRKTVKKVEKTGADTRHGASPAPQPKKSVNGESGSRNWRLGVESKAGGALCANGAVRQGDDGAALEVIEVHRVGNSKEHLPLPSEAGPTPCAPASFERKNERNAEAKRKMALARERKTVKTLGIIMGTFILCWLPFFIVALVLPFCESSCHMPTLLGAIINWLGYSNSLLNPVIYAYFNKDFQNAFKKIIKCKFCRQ
# How it was run: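 Displacement of the radiolabel is read on purchased receptor membranes. Conditions follow the vendor's standard method.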
# hD3 = molecular target: T5, hD3 (Homo sapiens, UniProt P35462); test: Radioligand binding, dopamine D3 ([3H]spiperone); settings: Table 4; [3H]spiperone 1 nM; read-out: Binding affinity, IC50 (nM) D3
# T5 construct: purchased BioSignal Packard Inc., Montreal, Canada
# T5 sequence (P35462 whole entry): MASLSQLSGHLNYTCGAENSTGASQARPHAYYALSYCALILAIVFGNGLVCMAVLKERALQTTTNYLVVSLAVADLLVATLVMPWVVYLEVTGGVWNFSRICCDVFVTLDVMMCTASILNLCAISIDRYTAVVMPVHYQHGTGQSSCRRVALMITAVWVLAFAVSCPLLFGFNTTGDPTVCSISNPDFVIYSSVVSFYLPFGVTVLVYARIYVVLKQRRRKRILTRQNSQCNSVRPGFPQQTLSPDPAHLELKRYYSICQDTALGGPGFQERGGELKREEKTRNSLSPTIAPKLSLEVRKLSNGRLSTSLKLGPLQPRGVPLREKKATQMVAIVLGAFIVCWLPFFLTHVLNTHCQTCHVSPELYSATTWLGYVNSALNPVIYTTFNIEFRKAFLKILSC
# How it was run: as §1
# hD2L = molecular target: T6, hD2L (Homo sapiens, UniProt P14416); test: Radioligand binding, dopamine D2 ([3H]spiperone); settings: Table 4; [3H]spiperone 1 nM; read-out: Binding affinity, IC50 (nM) D2
# T6 construct: purchased BioSignal Packard Inc., Montreal, Canada
# T6 sequence (P14416 whole entry): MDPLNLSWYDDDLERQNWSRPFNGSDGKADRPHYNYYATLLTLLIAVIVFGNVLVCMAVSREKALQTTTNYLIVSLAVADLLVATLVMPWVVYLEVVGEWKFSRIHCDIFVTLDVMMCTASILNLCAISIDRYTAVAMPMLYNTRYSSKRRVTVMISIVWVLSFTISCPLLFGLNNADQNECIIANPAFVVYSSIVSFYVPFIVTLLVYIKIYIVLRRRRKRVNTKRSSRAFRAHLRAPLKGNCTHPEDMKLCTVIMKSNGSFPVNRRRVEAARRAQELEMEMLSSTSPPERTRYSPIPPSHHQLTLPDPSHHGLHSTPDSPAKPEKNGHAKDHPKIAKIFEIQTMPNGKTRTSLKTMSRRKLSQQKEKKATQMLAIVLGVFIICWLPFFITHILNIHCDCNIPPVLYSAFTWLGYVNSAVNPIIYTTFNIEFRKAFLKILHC
# How it was run: as §1
# [1] = molecular target: T7, Human serotonin 5-HT6 receptor (Homo sapiens, UniProt P50406); test: [3H]LSD binding assay on cloned 5-HT6 receptor membranes
# T7 construct: made in house; host or cells: insect Sf21 cells (baculovirus vector BacPAK8)
# T7 sequence (P50406 whole entry): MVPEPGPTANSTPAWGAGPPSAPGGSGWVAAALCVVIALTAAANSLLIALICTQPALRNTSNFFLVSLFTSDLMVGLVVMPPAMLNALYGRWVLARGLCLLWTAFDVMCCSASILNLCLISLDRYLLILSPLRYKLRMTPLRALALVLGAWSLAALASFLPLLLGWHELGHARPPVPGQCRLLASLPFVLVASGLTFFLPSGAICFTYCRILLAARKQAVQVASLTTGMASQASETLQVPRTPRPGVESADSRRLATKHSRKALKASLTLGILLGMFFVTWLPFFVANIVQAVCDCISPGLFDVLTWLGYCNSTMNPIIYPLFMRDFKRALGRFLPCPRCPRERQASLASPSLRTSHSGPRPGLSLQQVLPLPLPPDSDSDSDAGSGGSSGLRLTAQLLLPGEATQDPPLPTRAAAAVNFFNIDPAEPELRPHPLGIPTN
# 5-HT2a = molecular target: T8, 5-HT2a (Homo sapiens, UniProt P28223); test: Radioligand binding, 5-HT2a ([3H]Ketanserin); settings: Table 4; [3H]Ketanserin 1 nM; read-out: Binding affinity, IC50 (nM) 5-HT2a
# T8 construct: purchased Euroscreen/BioSignal Packard Inc
# T8 sequence (P28223 whole entry): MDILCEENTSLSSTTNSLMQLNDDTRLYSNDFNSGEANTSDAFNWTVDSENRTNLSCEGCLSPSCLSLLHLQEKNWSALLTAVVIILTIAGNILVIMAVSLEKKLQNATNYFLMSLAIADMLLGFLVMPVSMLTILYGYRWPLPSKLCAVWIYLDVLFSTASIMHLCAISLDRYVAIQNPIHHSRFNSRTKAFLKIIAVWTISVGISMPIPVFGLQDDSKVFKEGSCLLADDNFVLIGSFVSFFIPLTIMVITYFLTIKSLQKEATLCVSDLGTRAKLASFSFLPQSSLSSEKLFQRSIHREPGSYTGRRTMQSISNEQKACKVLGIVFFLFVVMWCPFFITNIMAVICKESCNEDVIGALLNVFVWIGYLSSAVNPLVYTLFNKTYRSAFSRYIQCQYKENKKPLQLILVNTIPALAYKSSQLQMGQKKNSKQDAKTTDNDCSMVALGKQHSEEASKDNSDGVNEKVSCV
# mice = test: Rotarod deficit in mice; format: in vivo, mouse
# How it was run: (§2)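 Compounds suspended in 3% Tween 80 were given p.o. to mice 60 min before testing. Rotarod deficit (%) was the proportion of animals falling within 1 min from a 1 inch knurled rod turning at 6 rpm, scored at 60, 90 and 120 min after dosing.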
# Rotarod deficit in mice = format: in vivo, mouse; settings: mouse, in vivo, po, unit printed as image, read-out: TD50 (median neurotoxic dose)
# How it was run: as §2
# 5-HT6 receptors [2] = molecular target: T9, 5-HT6 receptors (Homo sapiens, UniProt P50406); settings: human 5-HT6 receptors, background literature; cited from earlier work
# T9 sequence (P50406 whole entry): as the sequence (P50406 whole entry) above
# rat = settings: cited from earlier work; for anticonvulsant activity: background literature
# rats [3] = settings: cited from earlier work
# rats [4] = settings: cited from earlier work; remark: listed apart in the source
# 5-HT6 receptors [5] = molecular target: T9, 5-HT6 receptors; settings: background literature, cited from earlier work; for affinity at 5-HT6 receptors, in words: antipsychotics
# rats [6] = settings: water maze; cited from earlier work
# [7] = cited from earlier work
# rats [8] = test: Methamphetamine-induced disruption of prepulse inhibition (PPI) in rats; format: in vivo, rat
# Description: To assay antipsychotic properties of the compounds according to the invention, prepulse inhibition (PPI) of acoustic startle in animals was performed. Startle response was measured using SR-LAB startle chamber (San Diego Instruments, San Diego, USA). The animal enclosure was housed in a ventilated and sound-attenuated startle chamber with 60 dB ambient noise level, and consisted of a Plexiglas cylinder 40 mm in diameter on a platform, connected to a piezoelectric accelerometer which detects and transducer motion within the cylinder. Acoustic noise bursts were presented through a loudspeaker mounted 24 ? above the animal. […] Each startle session began with a 5-min acclimatization period in the chamber to 68 dB background noises. The test session consisting of the following four different trial types was carried for all experiments: a 40 ms broadband 120 dB burst (P; pulse alone trial), P preceded 100 ms earlier by a 20 ms noise burst 10 dB above background (pP; prepulse+pulse trial), a 40 ms broadband 78 dB burst (prepulse alone trial), and a no stimulus trial (background). Eight trials of each type were presented in a pseudorandom order (total32 trials) with an average interval of 15 sec. separating each trial. An extra 5 pulse-alone trials were presented at the beginning and end of each test session, but were not used in the calculation of PPI values. PPI was defined as the percent reduction in startle amplitude in the presence of prepulse compared to the amplitude in the absence of the prepulse using the following Math Equation 1. […] Differences were considered significant at P<0.05. Statistical analyses were conducted using SigmaStat software (SigmaStat, Jandel Co., San Rafael, Calif.). The data were expressed as means±SEM.
# [9] = frontal cortex and dorsal hippocampus; cited from earlier work
# [10] = Table 2, 1.87 nM [3H]LSD, 37 C, 60 min, read-out: IC50 (nM), binding affinity to the 5-HT6 receptor
# [11] = Table 4, read-out: Binding affinity, IC50 (nM) 5-HT6
# Chain of D1 (P21728 whole entry): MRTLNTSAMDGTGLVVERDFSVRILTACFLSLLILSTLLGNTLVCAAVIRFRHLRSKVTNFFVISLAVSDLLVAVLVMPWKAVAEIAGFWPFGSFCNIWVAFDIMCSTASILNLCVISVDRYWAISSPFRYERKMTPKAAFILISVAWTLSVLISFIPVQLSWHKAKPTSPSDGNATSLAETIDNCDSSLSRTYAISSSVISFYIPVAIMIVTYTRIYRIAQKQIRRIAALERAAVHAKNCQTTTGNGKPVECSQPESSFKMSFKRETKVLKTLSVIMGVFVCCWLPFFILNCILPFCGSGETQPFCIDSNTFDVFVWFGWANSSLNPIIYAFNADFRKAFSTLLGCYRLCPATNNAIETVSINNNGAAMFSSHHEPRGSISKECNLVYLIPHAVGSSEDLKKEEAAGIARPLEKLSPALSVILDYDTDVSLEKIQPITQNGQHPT
# T1 sequence (P34969 whole entry): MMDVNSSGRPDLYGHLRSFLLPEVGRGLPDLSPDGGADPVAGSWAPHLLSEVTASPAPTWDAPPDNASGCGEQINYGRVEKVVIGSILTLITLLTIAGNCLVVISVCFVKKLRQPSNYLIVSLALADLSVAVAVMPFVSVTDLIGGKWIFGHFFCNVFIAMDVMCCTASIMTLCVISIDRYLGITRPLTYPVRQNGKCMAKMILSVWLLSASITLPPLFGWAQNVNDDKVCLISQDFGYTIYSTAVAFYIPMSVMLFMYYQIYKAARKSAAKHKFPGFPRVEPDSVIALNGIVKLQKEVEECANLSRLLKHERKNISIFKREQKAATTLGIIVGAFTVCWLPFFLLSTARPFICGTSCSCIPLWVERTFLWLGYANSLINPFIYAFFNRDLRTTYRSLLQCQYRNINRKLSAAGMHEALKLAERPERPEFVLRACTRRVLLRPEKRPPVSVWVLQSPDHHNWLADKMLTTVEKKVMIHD
compound,measurement,setting,value
"COc1ccc(C2(C)C(=O)c3c(N4CCNCC4)cc(Cl)cc3N(Cc3cccc(Br)c3)C2=O)cc1 (centres unmarked) [Example 33, 1-(3-Bromo-benzyl)-7-chloro-3-(4-methoxy-phenyl)-3-methyl-5-piperazin-1-yl-1H-quinoline-2,4-dione]",IC50,D1,> 1000 nM
same,IC50,5-HT7,> 10000 nM
same,melting point,,113 to 114 °C
same,IC50,5-HT2c,> 1000 nM
same,IC50,hD4.2 receptor,> 10000 nM
same,IC50,5-HT1a,> 1000 nM
same,IC50,hD3,> 1000 nM
same,IC50,hD2L,> 1000 nM
same,IC50,[1]; [10],1.8 nM
same,IC50,[1]; [11],1.8 nM
same,"binding affinity at 5-HT6 receptor labeled by [3H]LSD, in words",[1]; comment on Table 2,significant affinities
same,IC50,5-HT2a,> 1000 nM
same,Rotarod deficit (%),mice; 200 p.o. (dose unit not given),0%
same,Rotarod deficit (%),mice; 300 p.o. (dose unit not given),0%
same,Rotarod deficit (%),mice; 400 p.o. (dose unit not given),0%
same,TD50 at 120 min,Rotarod deficit in mice,> 400 mg/kg
"COc1ccc(C2(C)C(=O)c3c(N4CCNCC4)cc(Cl)cc3N(Cc3ccc4ccccc4c3)C2=O)cc1 (centres unmarked) [Example 39, 7-Chloro-3-(4-methoxy-phenyl)-3-methyl-1-naphthalen-2-ylmethyl-5-piperazin-1-yl-1H-quinoline-2,4-dione]",IC50,D1,> 1000 nM
same,IC50,5-HT7,> 1000 nM
same,melting point,,169 to 170 °C
same,IC50,5-HT2c,> 1000 nM
same,IC50,hD4.2 receptor,> 10000 nM
same,IC50,5-HT1a,> 10000 nM
same,IC50,hD3,> 1000 nM
same,IC50,hD2L,> 1000 nM
same,IC50,[1]; [10],4.7 nM
same,IC50,[1]; [11],4.7 nM
same,IC50,5-HT2a,> 1000 nM
same,Rotarod deficit (%),mice; 200 p.o. (dose unit not given),0%
same,Rotarod deficit (%),mice; 300 p.o. (dose unit not given),0%
same,Rotarod deficit (%),mice; 400 p.o. (dose unit not given),0%
same,TD50 at 120 min,Rotarod deficit in mice,> 400 mg/kg
COc1ccc2c(c1)c(CCN(C)C)cn2S(=O)(=O)c1ccccc1 [MS-245],"pA2, antagonist",5-HT6 receptors [2],8.88
CNc1cc(NS(=O)(=O)c2ccc(N)cc2)nc(NC)n1 [Ro 04-6790],anticonvulsant activity,rat,possess anticonvulsant activity
same,"induction of behavior of yawning, stretching, and chewing",rats [3],capable of inducing this same effect
same,food intake,rats [4],decreased food intake
CNc1cc(NS(=O)(=O)c2ccc(N)cc2)cc(NC)n1 [Ro 63-0563],Ki,5-HT6 receptors [5],12 nM
COc1ccc(S(=O)(=O)Nc2cc(Br)cc(F)c2Br)cc1N1CCNCC1 [SB-357134],retention of a previously learned task,rats [6],significant improvement
same,seizure threshold,"rat; rat maximal electroseizure threshold, oral administration",potent and dose-dependent increase
same,"clearance and bioavailability, in words",[7]; in vivo,low clearance rate and excellent oral bioavailability
CN(C)CCCN1c2ccccc2Sc2ccc(Cl)cc21 [chlorpromazine],"affinity at 5-HT6 receptors, in words",5-HT6 receptors [5],bind with high affinity
CN(C)CC/C=C1/c2ccccc2Sc2ccc(Cl)cc21 [chlorprothixene],"affinity at 5-HT6 receptors, in words",5-HT6 receptors [5],bind with high affinity
SB-271046 [reference compound],mean startle amplitude compared with methamphetamine group,rats [8]; administered 30 min before methamphetamine,no significant differences
same,"disruption of PPI by methamphetamine, effect of pretreatment","rats [8]; rats, i.p., 30 min before methamphetamine (3, i.p.), P<0.05",reversed significantly
same,retention of a previously learned task,rats [6],significant improvement
same,anticonvulsant activity,rat,possess anticonvulsant activity
same,oral bioavailability,[7]; background literature,> 80%
same,IC50,5-HT2c,3960 nM
same,IC50,hD4.2 receptor,> 10000 nM
same,IC50,hD2L,> 10000 nM
same,extracellular glutamate levels,[9],increased extracellular glutamate levels in frontal cortex and dorsal hippocampus by several fold

# — US20080275058A1, “N-Substituted-1H-Quinoline-2,4-Diones, Preparation Method Thereof, And Pharmaceutical Composition Containing The Same” (KOREA RESEARCH INSTITUTE OF CHEMICAL TECHNOLOGY, priority 2005, published 2008)
